{"source": "ChEMBL document CHEMBL3046675", "about": "“Synthesis and Octopaminergic-Agonist Activity of 2-(Arylimino)oxazolidines and 2-(Substituted Benzylamino)-2-oxazolines” (J Pestic Sci, 1996)", "molecules": {"B1": {"name": "Octopamine receptor (Periplaneta americana), Q7YWB7 (protein)", "chain": "MRDGVMNASTCSALLEQVAWDDPGLIASLVVLLLINVMVIVGNCLVIAAVFMSSKLRSVTNLFIVSLAVADLMVGLAVLPFSATWEVFKVWIFGDVWCSIWLAVDVWMCTASILNLCAISLDRYVAVTRPVTYPSIMSSGRAKLLIAGVWVLSFVICFPPLVGWKDKREDPPSNSSGSLFGSRPLTPPPALQVPAPCPWICELTNDAGYVVYSALGSFYLPMLVMLFFYWRIYRAAVQTTRAINQGFRTTKGSRTIGNRFDEQRLTLRIHRGRGSSVMRHGPTPPPSSSQQDSSVTETSLASSACGSPSSGATSSSAVKSPECQRLTRSSTRRSNKPIKISVSYPSSDAICMAGSNNGGVPSSSPSPNSSKKSSFSSSSPPPGLYSVHYSNGGREATSSVYRSRDPNCHLRVTGSRLASHNRRGSSVRRRSSTDSTLTPGAAQQLLEDKDLSPSPTFDDSGSAKPKLISRMGKRNIKAQVKRFRMETKAAKTLGIIVGGFIVCWLPFFTMYLVRAFCEDCIHHLLFSVLFWLGYCNSAINPCIYALFSKDFRFAFKRIICRCFCARKIKKETRDWARRRGSDGSQLGARGPEPGSERGRSPSNNNTQQYPHNSVGEDSDQGNDGSDSR"}}}
{"target": "T1, Octopamine receptor (Periplaneta americana) (UniProt Q7YWB7)", "T1 sequence (whole entry)": "B1 chain", "test": "Agonist activity at Periplaneta americana (American cockroach) thoracic nerve cord octopaminergic receptor assessed as induction of adenylate cyclase-mediated cAMP production per mg protein at 10 uM by radioimmunoassay", "units": {"Activity": "pmol/min"}}
{"molecule": "Clc1cccc(CNC2=NCCO2)c1", "Activity": 252}
{"target": "T1, Octopamine receptor (Periplaneta americana)", "test": "Agonist activity at Periplaneta americana (American cockroach) thoracic nerve cord octopaminergic receptor assessed as induction of adenylate cyclase-mediated cAMP production per mg protein at 100 uM by radioimmunoassay", "units": {"Activity": "pmol/min"}}
{"molecule": "Fc1ccc(F)c(CNC2=NCCO2)c1", "Activity": 211}
{"molecule": "Cc1ccc(CNC2=NCCO2)cc1", "Activity": 293}
{"molecule": "CCc1cccc(CC)c1/N=C1/NCCO1", "Activity": 365}
{"molecule": "CCc1ccc(/N=C2/NCCO2)cc1", "Activity": 170}
{"molecule": "Clc1cccc(/N=C2/NCCO2)c1", "Activity": 111}
{"molecule": "COc1cccc(CNC2=NCCO2)c1", "Activity": 91.5}
{"molecule": "O=[N+]([O-])c1cccc(CNC2=NCCO2)c1", "Activity": 206}
{"molecule": "Fc1ccccc1CNC1=NCCO1", "Activity": 184}
{"molecule": "Clc1ccccc1CNC1=NCCO1", "Activity": 200}
{"molecule": "FC(F)(F)c1ccc(/N=C2/NCCO2)cc1", "Activity": 145}
{"molecule": "Fc1ccc(CNC2=NCCO2)cc1", "Activity": 168}
{"molecule": "COc1ccc(CNC2=NCCO2)cc1", "Activity": 199}
{"molecule": "Clc1cc(Br)ccc1/N=C1/NCCO1", "Activity": 66.4}
{"molecule": "Cc1cc(Cl)ccc1/N=C1/NCCO1", "Activity": 204}
{"molecule": "Fc1cccc(F)c1/N=C1/NCCO1", "Activity": 109}
{"molecule": "Clc1cccc(/N=C2/NCCO2)c1Cl", "Activity": 121}
{"molecule": "Clc1ccc(/N=C2/NCCO2)c(Cl)c1Cl", "Activity": 189}
{"molecule": "Cc1cccc(CNC2=NCCO2)c1", "Activity": 158}
{"molecule": "Clc1ccc(CNC2=NCCO2)c(Cl)c1", "Activity": 172}
{"molecule": "Cc1cc(Br)ccc1/N=C1/NCCO1", "Activity": 214}
{"molecule": "Fc1ccc(F)c(/N=C2/NCCO2)c1", "Activity": 70.3}
{"molecule": "Clc1ccc(CNC2=NCCO2)cc1Cl", "Activity": 180}
{"molecule": "CCc1ccccc1/N=C1/NCCO1", "Activity": 84.1}
{"molecule": "FC(F)(F)c1ccccc1CNC1=NCCO1", "Activity": 137}
{"molecule": "NCC(O)c1ccc(O)cc1", "note": "(stereo not given)", "Activity": 630}
{"molecule": "FC(F)(F)c1ccc(C(F)(F)F)c(/N=C2/NCCO2)c1", "Activity": 88.3}
{"molecule": "Fc1cc(F)c(/N=C2/NCCO2)c(F)c1", "Activity": 123}
{"molecule": "Brc1ccccc1CNC1=NCCO1", "Activity": 164}
{"molecule": "COc1ccc(CNC2=NCCO2)c(OC)c1", "Activity": 161}
{"molecule": "Clc1ccc(CNC2=NCCO2)cc1", "Activity": 275}
{"molecule": "COc1ccccc1CNC1=NCCO1", "Activity": 146}
{"molecule": "Brc1cc(Br)c(/N=C2/NCCO2)c(Br)c1", "Activity": 87.4}
{"molecule": "COc1cccc(CNC2=NCCO2)c1OC", "Activity": 157}
{"molecule": "COc1cc(/N=C2/NCCO2)cc(OC)c1OC", "Activity": 61.2}
{"molecule": "FC(F)(F)c1ccc(CNC2=NCCO2)cc1", "Activity": 147}
{"molecule": "FC(F)(F)c1cccc(CNC2=NCCO2)c1", "Activity": 200}
{"target": "T1, Octopamine receptor (Periplaneta americana)", "test": "Agonist activity at Periplaneta americana (American cockroach) thoracic nerve cord octopaminergic receptor assessed as induction of adenylate cyclase-mediated cAMP production per mg protein at 100 uM by radioimmunoassay relative to octopamine", "units": {"max activation": "%"}}
{"molecule": "Fc1ccc(F)c(CNC2=NCCO2)c1", "max activation": 19.3}
{"molecule": "Cc1ccc(CNC2=NCCO2)cc1", "max activation": 35.2}
{"molecule": "CCc1cccc(CC)c1/N=C1/NCCO1", "max activation": 49}
{"molecule": "CCc1ccc(/N=C2/NCCO2)cc1", "max activation": 11.5}
{"molecule": "Clc1cccc(/N=C2/NCCO2)c1", "max activation": 0.2}
{"molecule": "COc1cccc(CNC2=NCCO2)c1", "max activation": -3.6}
{"molecule": "O=[N+]([O-])c1cccc(CNC2=NCCO2)c1", "max activation": 18.4}
{"molecule": "Fc1ccccc1CNC1=NCCO1", "max activation": 14.2}
{"molecule": "Clc1ccccc1CNC1=NCCO1", "max activation": 17.4}
{"molecule": "FC(F)(F)c1ccc(/N=C2/NCCO2)cc1", "max activation": 6.6}
{"molecule": "Fc1ccc(CNC2=NCCO2)cc1", "max activation": 11.2}
{"molecule": "COc1ccc(CNC2=NCCO2)cc1", "max activation": 17}
{"molecule": "Clc1cc(Br)ccc1/N=C1/NCCO1", "max activation": -8.4}
{"molecule": "Cc1cc(Cl)ccc1/N=C1/NCCO1", "max activation": 17.9}
{"molecule": "Fc1cccc(F)c1/N=C1/NCCO1", "max activation": -0.3}
{"molecule": "Clc1cccc(/N=C2/NCCO2)c1Cl", "max activation": 2}
{"molecule": "Clc1ccc(/N=C2/NCCO2)c(Cl)c1Cl", "max activation": 15.1}
{"molecule": "Cc1cccc(CNC2=NCCO2)c1", "max activation": 9.2}
{"molecule": "Clc1ccc(CNC2=NCCO2)c(Cl)c1", "max activation": 11.8}
{"molecule": "Cc1cc(Br)ccc1/N=C1/NCCO1", "max activation": 19.9}
{"molecule": "Fc1ccc(F)c(/N=C2/NCCO2)c1", "max activation": -7.7}
{"molecule": "Clc1ccc(CNC2=NCCO2)cc1Cl", "max activation": 13.5}
{"molecule": "CCc1ccccc1/N=C1/NCCO1", "max activation": -5}
{"molecule": "FC(F)(F)c1ccccc1CNC1=NCCO1", "max activation": 5.1}
{"molecule": "FC(F)(F)c1ccc(C(F)(F)F)c(/N=C2/NCCO2)c1", "max activation": -4.2}
{"molecule": "Fc1cc(F)c(/N=C2/NCCO2)c(F)c1", "max activation": 2.5}
{"molecule": "Brc1ccccc1CNC1=NCCO1", "max activation": 10.4}
{"molecule": "COc1ccc(CNC2=NCCO2)c(OC)c1", "max activation": 9.8}
{"molecule": "Clc1ccc(CNC2=NCCO2)cc1", "max activation": 31.7}
{"molecule": "COc1ccccc1CNC1=NCCO1", "max activation": 6.9}
{"molecule": "Brc1cc(Br)c(/N=C2/NCCO2)c(Br)c1", "max activation": -4.4}
{"molecule": "COc1cccc(CNC2=NCCO2)c1OC", "max activation": 8.9}
{"molecule": "COc1cc(/N=C2/NCCO2)cc(OC)c1OC", "max activation": -9.4}
{"molecule": "FC(F)(F)c1ccc(CNC2=NCCO2)cc1", "max activation": 7}
{"molecule": "FC(F)(F)c1cccc(CNC2=NCCO2)c1", "max activation": 17.2}
{"target": "T1, Octopamine receptor (Periplaneta americana)", "test": "Agonist activity at Periplaneta americana (American cockroach) thoracic nerve cord octopaminergic receptor assessed as induction of adenylate cyclase-mediated cAMP production per mg protein at 10 uM by radioimmunoassay relative to octopamine", "units": {"Activity": "%"}}
{"molecule": "Clc1cccc(CNC2=NCCO2)c1", "Activity": 27.2}
{"substrate": "CCc1cccc(CC)c1/N=C1/NCCO1", "test": "(§1) Agonist activity at Periplaneta americana (American cockroach) thoracic nerve cord octopaminergic receptor assessed as induction of adenylate cyclase-mediated cAMP production per mg protein by radioimmunoassay relative to octopamine", "units": {"Vmax": "%"}}
{"molecule": "B1", "Vmax": 58}
{"substrate": "Clc1ccc(CNC2=NCCO2)cc1Cl", "test": "as §1", "units": {"Vmax": "%"}}
{"molecule": "B1", "Vmax": 29}
{"substrate": "Clc1ccc(CNC2=NCCS2)cc1Cl", "test": "as §1", "units": {"Vmax": "%"}}
{"molecule": "B1", "Vmax": 53}
{"target": "T1, Octopamine receptor (Periplaneta americana)", "test": "Agonist activity at Periplaneta americana (American cockroach) thoracic nerve cord octopaminergic receptor assessed as induction of adenylate cyclase-mediated cAMP production per mg protein by radioimmunoassay", "units": {"Ka": "µM"}}
{"molecule": "CCc1cccc(CC)c1/N=C1/NCCO1", "Ka": 0.44}
{"molecule": "CCc1cccc(CC)c1NC1=NCCN1", "Ka": 0.44}
{"molecule": "CCc1ccc(/N=C2/NCCO2)cc1", "Ka": 36}
{"molecule": "Cc1cc(Cl)ccc1/N=C1/NCCO1", "Ka": 0.18}
{"molecule": "Clc1cccc(CNC2=NCCO2)c1", "Ka": 0.16}
{"molecule": "Cc1cc(Br)ccc1/N=C1/NCCO1", "Ka": 0.19}
{"molecule": "Clc1ccc(CNC2=NCCO2)cc1Cl", "Ka": 2.3}
{"molecule": "NCC(O)c1ccc(O)cc1", "note": "(stereo not given)", "Ka": 7.6}
{"molecule": "Clc1ccc(CNC2=NCCS2)cc1Cl", "Ka": 0.4}
